CN1COCNC1=N[N+](=O)[O-]
solubility (mole fraction)
Conditions | 293.15 K | 298.15 K | 303.15 K | 308.15 K | 313.15 K | 318.15 K | 323.15 K
in DMF | 0.0947 | 0.113 | 0.12 | 0.138 | 0.141 | 0.165 | 0.166
in DMSO | 0.0794 | 0.0978 | 0.104 | 0.115 | 0.12 | 0.123 | 0.14
in acetonitrile | 0.0241 | 0.0318 | 0.0336 | 0.0411 | 0.0436 | 0.0547 | 0.0563
in dichloromethane | 0.0126 | 0.0154 | 0.0162 | 0.0233 | 0.0234 | 0.0265 | 0.0277
in ethanol | 0.00163 | 0.00212 | 0.00241 | 0.00351 | 0.00379 | 0.00445 | 0.00507
in ethyl acetate | 0.00579 | 0.00614 | 0.00633 | 0.0074 | 0.00773 | 0.00866 | 0.0106
in ethylene glycol | 0.00157 | 0.00248 | 0.00289 | 0.00439 | 0.00447 | 0.00527 | 0.00893
in isopropanol | 0.00101 | 0.0013 | 0.0013 | 0.00175 | 0.00242 | 0.00285 | 0.00303
in methanol | 0.00289 | 0.00422 | 0.00447 | 0.00532 | 0.00682 | 0.00759 | 0.00978
in methyl acetate | 0.00741 | 0.00839 | 0.00936 | 0.0115 | 0.0124 | 0.0133 | 0.0157
in n-butanol | 0.00199 | 0.00218 | 0.00234 | 0.00279 | 0.00308 | 0.00321 | 0.00362
in n-propanol | 0.00109 | 0.00146 | 0.00195 | 0.00217 | 0.00247 | 0.00301 | 0.00441

— BigSolDB 2.1
